We go through 20 compounds from US20240066027A1 (DOMAIN THERAPEUTICS, priority 2020, published 2024).

pIC50: −log10 of the molar value. Structures can show the parent of a compound that is named as a salt. Where only a bound is given, the exact number is not on record here.

This test deals with T1, human PAR-2 (hPAR-2) receptor expressed in HEK-293 T cells in an endogenous manner (Homo sapiens, UniProt P55085).
T1 construct: human PAR-2 (hPAR-2) receptor expressed in HEK-293 T cells in an endogenous manner; endogenous in cells; host or cells: HEK-293 T cells
T1 sequence (P55085 26-397): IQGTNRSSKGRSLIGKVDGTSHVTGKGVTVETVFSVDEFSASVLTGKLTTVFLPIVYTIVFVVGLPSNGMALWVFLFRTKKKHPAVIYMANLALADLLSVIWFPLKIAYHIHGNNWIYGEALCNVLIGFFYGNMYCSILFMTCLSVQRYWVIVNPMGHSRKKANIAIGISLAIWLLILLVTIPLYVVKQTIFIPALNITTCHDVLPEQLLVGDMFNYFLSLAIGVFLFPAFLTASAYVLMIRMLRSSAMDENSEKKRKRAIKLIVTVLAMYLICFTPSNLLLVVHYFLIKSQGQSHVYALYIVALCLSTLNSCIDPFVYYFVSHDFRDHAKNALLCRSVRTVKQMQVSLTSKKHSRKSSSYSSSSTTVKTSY
The test can be described thus: In vitro human PAR-2 functional antagonist activity using calcium assays (Fluo4AM, FLIPR Tetra). Format: cell-based. The following applies: HEK-293 T cells stimulated by an EC80 of the 2-Furoyl-LIGRLO-NH2 peptide after 10 min incubation with compound; 20 concentrations, duplicate, two independent experiments. The procedure:
In vitro human PAR-2 functional antagonist activity using calcium assays
Examples of the present invention were tested successively for their agonist and antagonist activities on human PAR-2 (hPAR-2) receptor expressed in HEK-293 T cells in an endogenous manner. Compounds exert agonist activity if, by themselves in absence of the 2-Furoyl-LIGRLO-NH2 peptide (selective hPAR-2 agonist), they activate PAR-2; they exert antagonist activity if they decrease the action of the 2-Furoyl-LIGRLO-NH2 peptide on the receptor. The assay used to determine compound activity is based on calcium measurement.
Cell Culture: HEK-293 T cells were maintained in Dulbecco's Modified Eagle's Medium supplemented with 10% Foetal Calf Serum, 1% Penicillin/Streptomycin at 37° C./5% CO2. Flasks for tests (F75) are seeded with 6e+06 cells 24 h before the experiment at 37° C./5% CO2.
Calcium assay: Receptor activity was detected by changes in intracellular calcium measured using the fluorescent Ca^2+ sensitive dye, Fluo4AM (Molecular Probes).
The day of the assay, medium was replaced by assay buffer (HBSS 1× (Gibco 14175-053), Hepes 20 mM, MgSO4-7H2O 1 mM, Na2CO3 3.3 mM, CaCl2-2H2O 1.3 mM, 0.5% BSA, Probenecid 2.5 mM, 0.1 mg/mL Pluronic Acid) and complemented with 1 μM Fluo4AM and cells were incubated during 1:30 h at 37° C.
Cells were then detached, resuspended in assay buffer and seeded in 384 wells, transparent-flat bottom black walled plates (2e+04 cells per well). Plates were incubated at +22° C. for 20 min. Compounds stock solutions were prepared in 100% DMSO and dilutions in test buffer were carried out in polypropylene plates with a digital dispenser (D300e, Tecan). Compounds were added to the cells and intracellular Ca^2+ measurements were collected at the same time on FLIPR Tetra® (Molecular Devices) with specific filters (Exc: 470-495 nm/Em: 515-575 nm).
Agonist and antagonist activities of compounds were consecutively evaluated on the same cell plate. Agonist activity was first measured after 10 min incubation with the compound alone. Then, cells were stimulated by an EC80 of the 2-Furoyl-LIGRLO-NH2 peptide and fluorescence was recorded for an additional 5 min. EC80 of the 2-Furoyl-LIGRLO-NH2 peptide was the concentration giving 80% of the maximal 2-Furoyl-LIGRLO-NH2 response. Agonist activities are evaluated in comparison to basal signals evoked by assay buffer or maximal 2-Furoyl-LIGRLO-NH2 response. […] Antagonist activities are evaluated in comparison to basal signals evoked by assay buffer or EC80 of 2-Furoyl-LIGRLO-NH2 alone.

`CC(C)(C)n1cc(-c2ccc(Cl)c(F)c2)c2ccc(C(=O)N3CCC4(CCC(=O)N4)CC3)nc21` [Example 202, 8-(1-(tert-butyl)-3-(4-chloro-3-fluorophenyl)-1H-pyrrolo[2,3-b]pyridine-6-carbonyl)-1,8-diazaspiro[4.5]decan-2-one]: the pIC50 is 5.00 to 7.70.

As to `Cc1cc(N2CCN(C(=O)c3ccc4c(-c5ccc(Cl)c(F)c5)cn(C5CCOCC5)c4n3)C(C)(C)C2)nc(C)c1C(=O)O` [Example 98], the pIC50 is over 7.70.

`CC(C)(C)n1cc(-c2ccc(Cl)c(F)c2)c2ccc(C(=O)N3CC4(COC4)C3)nc21` [Example 10, (1-(tert-butyl)-3-(4-chloro-3-fluorophenyl)-1H-pyrrolo[2,3-b]pyridin-6-yl)(2-oxa-6-azaspiro[3.3]heptan-6-yl)methanone]: the negative-log IC50 (pIC50) was under 5.00.

In the case of `CC(C)(C)n1cc(-c2ccc(Cl)c(F)c2)c2ccc(C(=O)N3CCC4(CCNC4=O)CC3)nc21` [Example 13, 8-(1-(tert-butyl)-3-(4-chloro-3-fluorophenyl)-1H-pyrrolo[2,3-b]pyridine-6-carbonyl)-2,8-diazaspiro[4.5]decan-1-one], the negative-log IC50 (pIC50) was 5.00 to 7.70.

Consider `CC(C)(C)n1cc(-c2ccc(Cl)c(F)c2)c2ccc(C(=O)N3CCC4(NC(=O)NC4=O)C(C)(C)C3)nc21` (centres unmarked) [Example 200, 8-(1-(tert-butyl)-3-(4-chloro-3-fluorophenyl)-1H-pyrrolo[2,3-b]pyridine-6-carbonyl)-6,6-dimethyl-1,3,8-triazaspiro[4.5]decane-2,4-dione], for which the negative logarithm of the IC50 (pIC50) is 5.00 to 7.70.

`CC1(C)C(=O)NCCN1C(=O)c1ccc2c(-c3ccc(Cl)c(F)c3)cn(CCn3cccn3)c2n1` [Example 61, 4-(1-(2-(1H-pyrazol-1-yl)ethyl)-3-(4-chloro-3-fluorophenyl)-1H-pyrrolo[2,3-b]pyridine-6-carbonyl)-3,3-dimethylpiperazin-2-one]: the pIC50 was 5.00 to 7.70.

As for `CC(C)(C)n1cc(-c2ccc(Cl)c(F)c2)c2ccc(C(=O)N3CCS(=O)(=O)CC3)nc21` [Example 214, (1-(tert-butyl)-3-(4-chloro-3-fluorophenyl)-1H-pyrrolo[2,3-b]pyridin-6-yl)(1,1-dioxidothiomorpholino)methanone], the negative-log IC50 (pIC50) was 5.00 to 7.70.

Turning to `CC(C)Cn1cc(-c2ccc3c(c2)OCO3)c2ccc(C(=O)N3CCNC(=O)C3(C)C)nc21` [Example 223, 4-(3-(benzo[d][1,3]dioxol-5-yl)-1-isobutyl-1H-pyrrolo[2,3-b]pyridine-6-carbonyl)-3,3-dimethylpiperazin-2-one], the pIC50 is 5.00 to 7.70.

For the compound `CC1(C)CN(c2ccc(C(N)=O)cn2)CCN1C(=O)c1ccc2c(-c3ccc(Cl)c(F)c3)cn(C(C)(C)C)c2n1` [Example 138, 6-(4-(1-(tert-butyl)-3-(4-chloro-3-fluorophenyl)-1H-pyrrolo[2,3-b]pyridine-6-carbonyl)-3,3-dimethylpiperazin-1-yl)nicotinamide], the pIC50 is over 7.70.

As for `CC1(C)CCCN1C(=O)c1ccc2c(-c3ccc(Cl)c(F)c3)cn(C(C)(C)C)c2n1` [Example 16, (1-(tert-butyl)-3-(4-chloro-3-fluorophenyl)-1H-pyrrolo[2,3-b]pyridin-6-yl)(2,2-dimethylpyrrolidin-1-yl)methanone], the pIC50 is 5.00 to 7.70.

For `Cc1cc(NC(=O)C2CCN(C(=O)c3ccc4c(-c5ccc(Cl)c(F)c5)cn(C(C)(C)C)c4n3)CC2)nc(C)c1C(=O)O` [Example 123, 6-(1-(1-(tert-butyl)-3-(4-chloro-3-fluorophenyl)-1H-pyrrolo[2,3-b]pyridine-6-carbonyl)piperidine-4-carboxamido)-2,4-dimethylnicotinic acid], the pIC50 was 5.00 to 7.70.

For the compound `Cc1cc(N(C)[C@H]2CCN(C(=O)c3ccc4c(-c5ccc(Cl)c(F)c5)cn(C(C)(C)C)c4n3)C2)nc(C)c1C(=O)O` [Example 156, (S)-6-((1-(1-(tert-butyl)-3-(4-chloro-3-fluorophenyl)-1H-pyrrolo[2,3-b]pyridine-6-carbonyl)pyrrolidin-3-yl)(methyl)amino)-2,4-dimethylnicotinic acid], the pIC50 was 5.00 to 7.70.

`CCOC(=O)c1ccc(N2CCN(C(=O)c3ccn4c(-c5ccc(Cl)cc5)nc(C(C)(C)C)c4n3)C(C)(C)C2)nc1` [Example 216, ethyl 6-(4-(8-(tert-butyl)-6-(4-chlorophenyl)imidazo[1,5-a]pyrimidine-2-carbonyl)-3,3-dimethylpiperazin-1-yl)nicotinate]: the pIC50 is under 5.00.

With `CC(C)Cc1nc(-c2ccc(Cl)cc2)n2ccc(C(=O)N3CCN(c4ccc(C(=O)O)cn4)CC3(C)C)cc12` [Example 219, 6-(4-(3-(4-chlorophenyl)-1-isobutylimidazo[1,5-a]pyridine-7-carbonyl)-3,3-dimethylpiperazin-1-yl)nicotinic acid], the negative logarithm of the IC50 (pIC50) is 5.00 to 7.70.

In the case of `Cc1cc(N2CCN(C(=O)c3ccc4c(-c5ccc(Cl)c(F)c5)cn(C(C)(C)C)c4n3)CC2CO)nc(C)c1C(=O)O` (centres unmarked) [Example 157, 6-(4-(1-(tert-butyl)-3-(4-chloro-3-fluorophenyl)-1H-pyrrolo[2,3-b]pyridine-6-carbonyl)-2-(hydroxymethyl)piperazin-1-yl)-2,4-dimethylnicotinic acid], the pIC50 is 5.00 to 7.70.

With `CC(C)(C)n1cc(-c2ccc(Cl)c(F)c2)c2ccc(C(=O)N3CCC(Cn4cc(C(=O)O)cn4)CC3)nc21` [Example 187, 1-((1-(1-(tert-butyl)-3-(4-chloro-3-fluorophenyl)-1H-pyrrolo[2,3-b]pyridine-6-carbonyl)piperidin-4-yl)methyl)-1H-pyrazole-4-carboxylic acid], the negative logarithm of the IC50 (pIC50) is 5.00 to 7.70.

On to `Cc1cc(N2CCC3(CCN(C(=O)c4ccc5c(-c6ccc(Cl)c(F)c6)cn(C(C)(C)C)c5n4)C3)C2)nc(C)c1C(=O)O` (centres unmarked) [Example 128, 6-(7-(1-(tert-butyl)-3-(4-chloro-3-fluorophenyl)-1H-pyrrolo[2,3-b]pyridine-6-carbonyl)-2,7-diazaspiro[4.4]nonan-2-yl)-2,4-dimethylnicotinic acid], for which the pIC50 is under 5.00.

`CN(C)C(=O)CN1CCN(C(=O)c2ccc3c(-c4ccc(Cl)c(F)c4)cn(C(C)(C)C)c3n2)C(C)(C)C1=O` [Example 7, 2-(4-(1-(tert-butyl)-3-(4-chloro-3-fluorophenyl)-1H-pyrrolo[2,3-b]pyridine-6-carbonyl)-3,3-dimethyl-2-oxopiperazin-1-yl)-N,N-dimethylacetamide]: the pIC50 was over 7.70.

Consider `Cc1cc2c(-c3ccc(Cl)c(F)c3)cn(CC(C)C)c2nc1C(=O)N1CCN(c2cc(C)c(C(=O)O)c(C)n2)CC1(C)C` [Example 174, 6-(4-(3-(4-chloro-3-fluorophenyl)-1-isobutyl-5-methyl-1H-pyrrolo[2,3-b]pyridine-6-carbonyl)-3,3-dimethylpiperazin-1-yl)-2,4-dimethylnicotinic acid], for which the pIC50 was 5.00 to 7.70.

Turning to `Cc1cc(N2CCN(C(=O)c3ccc4c(-c5ccc(Cl)c(F)c5)cn(Cc5cccnc5)c4n3)C(C)(C)C2)nc(C)c1C(=O)O` [Example 135, 6-(4-(3-(4-chloro-3-fluorophenyl)-1-(pyridin-3-ylmethyl)-1H-pyrrolo[2,3-b]pyridine-6-carbonyl)-3,3-dimethylpiperazin-1-yl)-2,4-dimethylnicotinic acid hydrochloride], the negative logarithm of the IC50 (pIC50) was 5.00 to 7.70.

One may read the pIC50 as the IC50 on a negative log10 scale, so that one unit is a factor of ten.
